Measured values published in US9447015B1, “(S)-2′-vinyl-abscisic acid derivatives” (Valent BioSciences Corporation, priority 2015, dated 2016).
“Also recorded” adds a separate entry of the source.

Key:
[1] = tested on: Arabidopsis thaliana seed germination; experiment: Arabidopsis seed germination assay (promotion of germination in the presence of (S)-ABA); format: in vivo; parameters: key to Rating: Arabidopsis seed germination promotion activity: −: Seeds germinated at approximately the same time as those treated with 0.3 ppm of (S)-ABA alone (i.e., treatment with the 2′-vinyl-(S)-ABA derivative showed no measurable effect in this assay configuration).; +: Seeds germinated 1 to 4 days earlier than those treated with 0.3 ppm of (S)-ABA alone.; ++: Seeds germinated 5 to 7 days earlier than those treated with 0.3 ppm of (S)-ABA alone.; +++: Seeds germinated 8 to 10 days earlier than those treated with 0.3 ppm of (S)-ABA alone; conditions: for Rating: Arabidopsis seed germination promotion activity: 30 ppm compound in the presence of 0.3 ppm (S)-ABA, scored on day 14; for antagonist nature compared to (S)-ABA: seed germination assay, 30 ppm with 0.3 ppm (S)-ABA
Procedure: To determine whether the (S)-ABA derivatives of the present invention were effective antagonists, germination assays were performed with the model plant Arabidopsis thaliana. If the compounds are found to be antagonists, they may be useful to counter any undesirable side effects of (S)-ABA.
Arabidopsis seed was sterilized by shaking for five minutes in 200 proof ethanol, followed by shaking for five minutes in a 10% bleach solution. The seeds were then washed five times in sterile, distilled, de-ionized water and suspended in 0.1% phytoagar. The tubes containing the seeds were wrapped in aluminum foil and stratified at 4° C. for two days.
All compounds were tested at a concentration of 30 ppm in the presence or absence of 0.3 ppm (S)-ABA, in 24-well plates. For each compound, a 1000 ppm stock solution was prepared in distilled, deionized water containing 5% DMSO. The stock test solution (15 μL) was added to each well, plus or minus 1.5 μL of 100 ppm (S)-ABA in 5% DMSO. Appropriate amounts of distilled, de-ionized water was added to equalize volumes, and 450 μL of ½×Murashige and Skoog media containing 1.2% Bactoagar was then added to each well (final DMSO concentration was 0.5%). When the media solidified, ten to 15 sterile stratified Arabidopsis seeds were distributed into each well using a repeat pipettor. The plates were sealed with surgical tape and placed in a growth chamber running diurnal cycles of 12 hours of light at 24° C. and 12 hours of darkness at 19° C. The plates were scanned on days 3 through 14, and scored on day 14. The (S)-2′-vinyl-substituted ABA derivatives were scored on ability to promote germination in the presence of (S)-ABA. The results are summarized below in “Table 1: Arabidopsis seed germination promotion activity of 2′-vinyl-(S)-ABA derivatives.”

[2] = tested on: grapevines, Seedless 'Red Flame' (bud break and shoot development); experiment: Field study for breaking grape vine dormancy; format: in vivo; conditions: for Percent of Buds Broken / Shoot Length/Spur (total length of all shoots present on spur): 1% solution applied to dormant grape spurs
Procedure: A small plot field study to test the effect of experimental compounds on release of, or breaking grape vine dormancy was conducted near Thermal, Calif. in January, 2016. The grapevines, Seedless ‘Red Flame’, had been pruned to 2-4 node spurs (shortened canes) prior to treatment. Aqueous treatment solutions were prepared with a test compound, an appropriate buffering agent, and a silicone-based nonionic surfactant at 0.25% (v/v). Each spur was thoroughly wetted with a 1% (w/v) solution, which was applied with a foam brush. Dormancy breaking was assessed periodically by examining bud break (initiation of growth) and subsequent shoot development. […] Both a control treatment (aqueous solution with surfactant) and a positive control treatment (the commercial standard for bud breaking, hydrogen cyanamide) were included in this study for comparison.

| Compound | Rating: Arabidopsis seed germination promotion activity [1] | further results |
| --- | --- | --- |
| CC(=C/C(=O)O)/C=C/[C@@]1(O)C(/C=C/c2c(F)cccc2Cl)=CC(=O)CC1(C)C [Compound 7] | ++ (Seeds germinated 5 to 7 days earlier than those treated with 0.3 ppm of (S)-ABA alone.) |  |
| CC(=C/C(=O)O)/C=C/[C@@]1(O)C(/C=C/c2nccs2)=CC(=O)CC1(C)C [Compound 34] | − |  |
| CC(=C/C(=O)O)/C=C/[C@@]1(O)C(/C=C/c2ccccc2C(F)(F)F)=CC(=O)CC1(C)C [Compound 25] | ++ (Seeds germinated 5 to 7 days earlier than those treated with 0.3 ppm of (S)-ABA alone.) |  |
| CC(=C/C(=O)O)/C=C/[C@@]1(O)C(/C=C/c2cc(C(F)(F)F)ccc2Cl)=CC(=O)CC1(C)C [Compound 1] | ++ (Seeds germinated 5 to 7 days earlier than those treated with 0.3 ppm of (S)-ABA alone.) |  |
| N#CN [Hydrogen cyanamide, hydrogen cyanamide, reference compound] |  | Percent of Buds Broken ([2]; 31 days post-treatment): 21.0%; Percent of Buds Broken ([2]; 48 days post-treatment): 58.8%; Shoot Length/Spur (total length of all shoots present on spur) ([2]; 48 days post-treatment): 25.2 cm |
| CC(=C/C(=O)O)/C=C/[C@@]1(O)C(/C=C/c2cccc(Cl)c2)=CC(=O)CC1(C)C [Compound 17] | − |  |
| COc1ccc(C(F)(F)F)cc1/C=C/C1=CC(=O)CC(C)(C)[C@@]1(O)/C=C/C(C)=C\C(=O)O [Compound 28] | ++ (Seeds germinated 5 to 7 days earlier than those treated with 0.3 ppm of (S)-ABA alone.) |  |
| COC(=O)/C=C(C)\C=C\[C@@]1(O)C(/C=C/c2ccc(OC)c(C#N)c2)=CC(=O)CC1(C)C [Compound 11] | − |  |
| CC(=C/C(=O)O)/C=C/[C@@]1(O)C(/C=C/c2cncs2)=CC(=O)CC1(C)C [Compound 35] | − |  |
| CC(=C/C(=O)O)/C=C/[C@@]1(O)C(/C=C/c2c(Cl)cccc2Cl)=CC(=O)CC1(C)C [Compound 5] | − |  |
| COC(=O)/C=C(C)\C=C\[C@@]1(O)C(/C=C/c2ccccc2F)=CC(=O)CC1(C)C [Compound 10] | − |  |
| CC(=C/C(=O)O)/C=C/[C@@]1(O)C(/C=C/c2ccc(F)c(F)c2)=CC(=O)CC1(C)C [Compound 23] | +++ (Seeds germinated 8 to 10 days earlier than those treated with 0.3 ppm of (S)-ABA alone.) | antagonist nature compared to (S)-ABA [1]: antagonists of (S)-ABA; also recorded: one of the most potent (S)-ABA antagonist; Percent of Buds Broken ([2]; 31 days post-treatment): 16.7%; Percent of Buds Broken ([2]; 48 days post-treatment): 76.7%; Shoot Length/Spur (total length of all shoots present on spur) ([2]; 48 days post-treatment): 22.2 cm; Shoot Length/Spur (total length of all shoots present on spur) ([2]; 48 days post-treatment, listed as compound 23): intermediate between the spurs treated with the control and hydrogen cyanamide; effect on bud break / breaking of woody plant dormancy ([2]; application to dormant grape spurs, 1% solution): significantly increased bud break |
| CC(=C/C(=O)O)/C=C/[C@@]1(O)C(/C=C/c2cc(F)cc(F)c2)=CC(=O)CC1(C)C [Compound 24] | ++ (Seeds germinated 5 to 7 days earlier than those treated with 0.3 ppm of (S)-ABA alone.) |  |
| CC(=C/C(=O)O)/C=C/[C@@]1(O)C(/C=C/c2cc(F)cc(C(F)(F)F)c2)=CC(=O)CC1(C)C [Compound 29] | ++ (Seeds germinated 5 to 7 days earlier than those treated with 0.3 ppm of (S)-ABA alone.) |  |
| CC(=C/C(=O)O)/C=C/[C@@]1(O)C(/C=C/c2ccc(C(F)(F)F)cc2)=CC(=O)CC1(C)C [Compound 26] | +++ (Seeds germinated 8 to 10 days earlier than those treated with 0.3 ppm of (S)-ABA alone.) | antagonist nature compared to (S)-ABA [1]: antagonists of (S)-ABA |
| CC(=C/C(=O)O)/C=C/[C@@]1(O)C(/C=C/c2cccnc2)=CC(=O)CC1(C)C [Compound 37] | − |  |
| CC(=C/C(=O)O)/C=C/[C@@]1(O)C(/C=C/c2ccco2)=CC(=O)CC1(C)C [Compound 33] | − |  |
| CC(=C/C(=O)O)/C=C/[C@@]1(O)C(/C=C/c2ccc(C(F)(F)F)cc2F)=CC(=O)CC1(C)C [Compound 30] | ++ (Seeds germinated 5 to 7 days earlier than those treated with 0.3 ppm of (S)-ABA alone.) |  |
| CC(=C/C(=O)O)/C=C/[C@@]1(O)C(/C=C/c2ccc(Cl)cc2)=CC(=O)CC1(C)C [Compound 18] | +++ (Seeds germinated 8 to 10 days earlier than those treated with 0.3 ppm of (S)-ABA alone.) | antagonist nature compared to (S)-ABA [1]: antagonists of (S)-ABA |
| CC(=C/C(=O)O)/C=C/[C@@]1(O)C(/C=C/c2cccc(C(F)(F)F)c2)=CC(=O)CC1(C)C [Compound 21] | + (Seeds germinated 1 to 4 days earlier than those treated with 0.3 ppm of (S)-ABA alone.) |  |
| COC(=O)/C=C(C)\C=C\[C@@]1(O)C(/C=C/c2ccc(Cl)cc2Cl)=CC(=O)CC1(C)C [Compound 15] | ++ (Seeds germinated 5 to 7 days earlier than those treated with 0.3 ppm of (S)-ABA alone.) |  |
| CC(=C/C(=O)O)/C=C/[C@@]1(O)C(/C=C/c2ccccn2)=CC(=O)CC1(C)C [Compound 36] | − |  |
| CC(=C/C(=O)O)/C=C/[C@@]1(O)C(/C=C/c2cccc(C#N)c2)=CC(=O)CC1(C)C [Compound 32] | − |  |
